Measured values reported in patent US6447801B1, “Anti-parasitic action of N,N-diethyl-m-toluamide (deet) and formulations that prolong its activity in the skin” (priority 1997, dated 2002).
Where two headings read alike, the source gives them in different places.

How the values were obtained:
[1] = tested on: cercariae; conditions: in tissue culture / in vitro, cited from earlier work
[2] = Disposition of 14C-DEET and 14C-Lipodeet after skin application (skin, blood, urine, bedding radioactivity)
Procedure: In this series of experiments, 11.472 mg of ^14C-DEET of ^14C-Lipodeet (in 100 μl) was applied to 5 cm^2 area of the mice abdominal skin. At different time points (15 min, 30 min, 60 min, 2 hrs., 4 hrs., 24 hrs., 48 hrs. and 72 hrs.) after application, the whole area of skin where the lipodeet had been applied was collected, underlying tissue removed and the radioactivity measured in a Beckman β-counter. Samples of blood and urine were also collected at these time points from each mouse to measure the radioactivity (n=10 for each time point). […] In this study, we made observations only up to 72 hrs. […] There are two possibilities, (1) substantial quantities of both DEET and Lipodeet are absorbed systemically through the skin within 24 hrs., or (2) both the chemicals are lost in the bedding due to direct contact of the applied area to the bedding materials. The first hypothesis was tested by measuring ^14C levels in the blood and urine in these animals.

| SMILES | cercaricidal effect [1] | further results |
| --- | --- | --- |
| C[C@@H]1CC[C@H]2C(C)(C)[C@H]3C[C@@]12CC[C@@]3(C)O [Cederol] | significant cercaricidal effect | – |
| CCCCCCCCCCCC(=O)N(CC)CC [N,N-diethyl lauramide] | significant cercaricidal effect | – |
| O=C(Nc1ccc([N+](=O)[O-])cc1Cl)c1cc(Cl)ccc1O [Niclosamide] | significant cercaricidal effect | – |
| CCN(CC)C(=O)c1cccc(C)c1 [^14C-DEET] | – | urine radioactivity ([2]; 15 minutes after application): > 5.7×10^7 cpm/ml; radio label in the blood ([2]; within 15 minutes after application): Significant quantity of the radio label was present in the blood |
| O=C(OCc1ccccc1)c1ccccc1 [benzyl benzoate] | significant cercaricidal effect | – |
| CCCCOC(=O)c1ccccc1C(=O)OCCCC [dibutyl phthalate] | significant cercaricidal effect | – |
| Oc1c(Cl)cc(Cl)c(Cl)c1Cc1c(O)c(Cl)cc(Cl)c1Cl [hexachlorophene] | significant cercaricidal effects | cercaricidal effect ([1]; listed as hexachlorophere): significant cercaricidal effect |
